These results are taken from patent publication US9242970B2 (ACTELION PHARMACEUTICALS LTD., priority 2010, dated 2016).

One assay addresses human orexin-1 receptor (Homo sapiens (Human), UniProt O43613). The assay is described as follows: In vitro assay: intracellular calcium measurements (FLIPR), antagonistic activity. In kind it is cell-based. To be noted: CHO cells, 3 nM orexin-A, marked values are geometric means of n = 2-6, read-out: IC50 OX1. The procedure:
(§1) In Vitro Assay: Intracellular Calcium Measurements:
(§2) Chinese hamster ovary (CHO) cells expressing the human orexin-1 receptor and the human orexin-2 receptor, respectively, are grown in culture medium (Ham F-12 with L-Glutamine) containing 300 µg/ml G418, 100 U/ml penicillin, 100 µg/ml streptomycin and 10% heat inactivated fetal calf serum (FCS). The cells are seeded at 20,000 cells/well into 384-well black clear bottom sterile plates (Greiner). The seeded plates are incubated overnight at 37° C. in 5% CO2.
(§3) Fluorescence is measured for each well at 1 second intervals, and the height of each fluorescence peak is compared to the height of the fluorescence peak induced by 3 nM orexin-A with vehicle in place of antagonist. […] Optimized conditions were achieved by adjustment of pipetting speed and cell splitting regime. The calculated IC50 values may fluctuate depending on the daily cellular assay performance. Fluctuations of this kind are known to those skilled in the art.
A general note: A change in cytosolic calcium serves as a functional read-out for many receptors and channels.

A further assay addresses human orexin-2 receptor (Homo sapiens (Human), UniProt O43614). Described as above. In kind it is cell-based. The conditions noted are these: read-out: IC50 OX2. The protocol:
as §1, §2, §3

[1] abbreviates: compound incubation time of 10 min.
[2] abbreviates: CHO cells, 3 nM orexin-A, compound incubation time of 10 min, marked values are geometric means of n = 2-6.
Where [3] appears, read: CHO cells, 3 nM orexin-A, compound incubation 120 min, marked values are geometric means of n = 2-6.

The structures appear in SMILES notation. Where two headings read alike, the source gives them in different places.

human orexin-1 receptor, sequence (O43613 whole entry): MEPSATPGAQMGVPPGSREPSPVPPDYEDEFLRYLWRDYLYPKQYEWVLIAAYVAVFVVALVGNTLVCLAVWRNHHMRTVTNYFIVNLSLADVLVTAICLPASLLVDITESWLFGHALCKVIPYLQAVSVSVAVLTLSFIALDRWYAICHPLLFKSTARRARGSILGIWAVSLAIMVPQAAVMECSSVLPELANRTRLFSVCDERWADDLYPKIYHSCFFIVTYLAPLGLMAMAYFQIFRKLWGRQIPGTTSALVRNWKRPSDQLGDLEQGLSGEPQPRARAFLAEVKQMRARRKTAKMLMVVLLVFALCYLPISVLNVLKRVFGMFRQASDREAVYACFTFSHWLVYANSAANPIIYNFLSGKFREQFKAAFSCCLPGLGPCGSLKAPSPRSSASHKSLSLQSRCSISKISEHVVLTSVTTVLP
human orexin-2 receptor, sequence (O43614 whole entry): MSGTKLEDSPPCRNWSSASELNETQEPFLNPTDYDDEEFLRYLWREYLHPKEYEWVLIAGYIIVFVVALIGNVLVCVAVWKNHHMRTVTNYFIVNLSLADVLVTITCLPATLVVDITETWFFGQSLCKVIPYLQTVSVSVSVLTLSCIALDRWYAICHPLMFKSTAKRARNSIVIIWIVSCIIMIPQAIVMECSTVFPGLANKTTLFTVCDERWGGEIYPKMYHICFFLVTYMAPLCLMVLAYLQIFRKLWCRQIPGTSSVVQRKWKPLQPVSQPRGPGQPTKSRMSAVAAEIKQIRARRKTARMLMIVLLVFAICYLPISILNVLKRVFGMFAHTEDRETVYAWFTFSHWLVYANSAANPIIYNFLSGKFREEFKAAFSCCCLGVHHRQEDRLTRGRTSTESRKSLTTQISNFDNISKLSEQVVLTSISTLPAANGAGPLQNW

With `COc1cccc(OC)c1[C@@H]1C[C@H](OC)C(=O)N1Cc1ccc(OC(F)(F)F)cc1` (racemic) [Example 254, rac-(3S*,5S*)-5-(2,6-dimethoxyphenyl)-3-methoxy-1-(4-(trifluoromethoxy)benzyl)pyrrolidin-2-one], the 50% inhibitory concentration (IC50) (usually the point on the concentration scale where inhibition reaches its midpoint) on human orexin-1 receptor (setting [1]) came out at 191 nM; on human orexin-2 receptor (setting [2]) it was 168 nM.
The corresponding values for `COc1cccc(OC)c1[C@@H]1C[C@@H](Cl)C(=O)N1Cc1ccc(OC(F)(F)F)cc1` (racemic) [Example 257, rac-(3R*,5S*)-3-chloro-5-(2,6-dimethoxyphenyl)-1-(4-(trifluoromethoxy)benzyl)pyrrolidin-2-one] are 177 nM and 563 nM.
The corresponding values for `COc1cccc(OC)c1[C@@H]1C[C@H](Cl)C(=O)N1Cc1ccc(OC(F)(F)F)cc1` (racemic) [Example 261, rac-(3S*,5S*)-3-chloro-5-(2,6-dimethoxyphenyl)-1-(4-(trifluoromethoxy)benzyl)pyrrolidin-2-one] are 65 nM and 41 nM.
Take `COc1cccc(OC)c1[C@@H]1C[C@@H](OC)C(=O)N1Cc1ccc(OC(F)(F)F)cc1` (racemic) [Example 262, rac-(3R*,5S*)-5-(2,6-dimethoxyphenyl)-3-methoxy-1-(4-(trifluoromethoxy)benzyl)pyrrolidin-2-one]: the values for the IC50 at human orexin-1 receptor (setting [1]) and at human orexin-2 receptor (setting [2]) were 3380 nM and 6940 nM, respectively.
Turning to `CC[C@H]1C[C@@H](c2c(OC)cccc2OC)N(Cc2ccc(OC(F)(F)F)cc2)C1=O` (racemic) [Example 263, rac-(3S*,5S*)-5-(2,6-dimethoxyphenyl)-3-ethyl-1-(4-(trifluoromethoxy)benzyl)pyrrolidin-2-one], the IC50 stood at 619 nM on human orexin-1 receptor (setting [1]) and 3610 nM at human orexin-2 receptor (setting [2]).
For `O=C1[C@H](O)C[C@@H](c2cccc3c2OCCO3)N1Cc1ccc(OC(F)(F)F)cc1` (racemic) [Example 295, rac-(3R*,5S*)-5-(2,3-dihydrobenzo[b][1,4]dioxin-5-yl)-3-hydroxy-1-(4-(trifluoromethoxy)benzyl)pyrrolidin-2-one], the 50% inhibitory concentration (IC50) on human orexin-1 receptor (compound incubation 120 min) amounted to 3970 nM; at human orexin-2 receptor (setting [3]), 5010 nM.
The like results for `COc1ccccc1[C@@H]1C[C@H](F)C(=O)N1Cc1ccc(OC(F)(F)F)cc1` (racemic) [Example 297, rac-(3S*,5S*)-3-fluoro-5-(2-methoxyphenyl)-1-(4-(trifluoromethoxy)benzyl)pyrrolidin-2-one] were, in that order, 1050 nM and 568 nM.
For the compound `COc1ccccc1[C@@H]1C[C@H](Cl)C(=O)N1Cc1ccc(OC(F)(F)F)cc1` (racemic) [Example 298, rac-(3S*,5S*)-3-chloro-5-(2-methoxyphenyl)-1-(4-(trifluoromethoxy)benzyl)pyrrolidin-2-one], the IC50 at human orexin-1 receptor (compound incubation 120 min) turned out to be 1630 nM; at human orexin-2 receptor (setting [3]), 901 nM.
In the case of `CCOc1ccccc1[C@@H]1C[C@@H](O)C(=O)N1Cc1ccc(OC(F)(F)F)cc1` (racemic) [Example 299, rac-(3R*,5S*)-5-(2-ethoxyphenyl)-3-hydroxy-1-(4-(trifluoromethoxy)benzyl)pyrrolidin-2-one], the results for the IC50 at human orexin-1 receptor (compound incubation 120 min) and on human orexin-2 receptor (setting [3]) were 1860 nM and 170 nM, respectively.
The like results for `COc1cccc(F)c1[C@@H]1C[C@H](F)C(=O)N1Cc1ccc(OC(F)(F)F)cc1` (racemic) [Example 301, rac-(3S*,5S*)-3-fluoro-5-(2-fluoro-6-methoxyphenyl)-1-(4-(trifluoromethoxy)benzyl)pyrrolidin-2-one] were, in that order, 1700 nM and 66 nM.
As to `COc1cc(F)ccc1[C@@H]1C[C@H](F)C(=O)N1Cc1ccc(OC(F)(F)F)cc1` (racemic) [Example 303, rac-(3S*,5S*)-3-fluoro-5-(4-fluoro-2-methoxyphenyl)-1-(4-(trifluoromethoxy)benzyl)pyrrolidin-2-one], the IC50 on human orexin-2 receptor (setting [3]) was found to be 143 nM.
As to `CCOc1c(F)cccc1[C@@H]1C[C@@H](O)C(=O)N1Cc1ccc(OC(F)(F)F)cc1` (racemic) [Example 310, rac-(3R*,5S*)-5-(2-ethoxy-3-fluorophenyl)-3-hydroxy-1-(4-(trifluoromethoxy)benzyl)pyrrolidin-2-one], at human orexin-2 receptor (setting [3]), the IC50 came out at 1680 nM.
Consider `COc1ccc(F)c(OC)c1[C@@H]1C[C@@H](O)C(=O)N1Cc1ccc(OC(F)(F)F)cc1` (racemic) [Example 311, rac-(3R*,5S*)-5-(3-fluoro-2,6-dimethoxyphenyl)-3-hydroxy-1-(4-(trifluoromethoxy)benzyl)pyrrolidin-2-one], for which, on human orexin-2 receptor (setting [3]), the IC50 turned out to be 742 nM.
As to `COc1c(F)ccc(F)c1[C@@H]1C[C@H](F)C(=O)N1Cc1ccc(OC(F)(F)F)cc1` (racemic) [Example 321, rac-(3S*,5S*)-5-(3,6-difluoro-2-methoxyphenyl)-3-fluoro-1-(4-(trifluoromethoxy)benzyl)pyrrolidin-2-one], the IC50 on human orexin-2 receptor (setting [3]) stood at 405 nM.
Same read-out and setting: for `CCOc1ccc(F)c(F)c1[C@@H]1C[C@@H](O)C(=O)N1Cc1ccc(OC(F)(F)F)cc1` (racemic) [Example 338, rac-(3R*,5S*)-5-(6-ethoxy-2,3-difluorophenyl)-3-hydroxy-1-(4-(trifluoromethoxy)benzyl)pyrrolidin-2-one] the value was 58 nM.
Regarding `CC(C)Oc1cccc(F)c1[C@@H]1C[C@@H](O)C(=O)N1Cc1ccc(OC(F)(F)F)cc1` (racemic) [Example 394, rac-(3R*,5S*)-5-(2-fluoro-6-isopropoxyphenyl)-3-hydroxy-1-(4-(trifluoromethoxy)benzyl)pyrrolidin-2-one], the IC50 at human orexin-2 receptor (setting [3]) turned out to be 77 nM.
With `COc1cccc(F)c1[C@@H]1C[C@@H](Cl)C(=O)N1Cc1ccc2oc3ccccc3c2c1` (racemic) [Example 396, rac-(3R*,5S*)-3-chloro-1-(dibenzo[b,d]furan-2-ylmethyl)-5-(2-fluoro-6-methoxyphenyl)pyrrolidin-2-one], the IC50 at human orexin-2 receptor (setting [3]) came to 29 nM.
In the case of `COc1cccc(F)c1[C@@H]1C[C@H](Cl)C(=O)N1Cc1ccc2oc3ccccc3c2c1` (racemic) [Example 408, rac-(3S*,5S*)-3-chloro-1-(dibenzo[b,d]furan-2-ylmethyl)-5-(2-fluoro-6-methoxyphenyl)pyrrolidin-2-one], at human orexin-2 receptor (setting [3]), the concentration for half-maximal inhibition (IC50) is 5 nM.
With `COc1cccc(F)c1C1CCCC(=O)N1Cc1ccc(OC(F)(F)F)cc1` (stereo not shown) [Example 220, 6-(2-fluoro-6-methoxyphenyl)-1-(4-(trifluoromethoxy)benzyl)piperidin-2-one], the half-maximal inhibitory concentration (IC50) on human orexin-2 receptor (setting [2]) is 156 nM.
Regarding `CCOc1cccc(F)c1C1CC(C)C(=O)N1Cc1ccc(OC(F)(F)F)cc1` (stereo not shown) [Example 370, 5-(2-ethoxy-6-fluorophenyl)-3-methyl-1-(4-(trifluoromethoxy)benzyl)pyrrolidin-2-one], the IC50 at human orexin-2 receptor (setting [3]) was 30 nM.
Regarding `CCOc1cccc(F)c1C1CC(C)C(=O)N1Cc1ccc(OC(F)F)cc1` (stereo not shown) [Example 373, 1-(4-(difluoromethoxy)benzyl)-5-(2-ethoxy-6-fluorophenyl)-3-methylpyrrolidin-2-one], the IC50 on human orexin-2 receptor (setting [3]) is 65 nM.
Same read-out and setting: for `CCOc1cccc(CN2C(=O)C(C)CC2c2c(F)cccc2OCC)c1` (stereo not shown) [Example 376, 5-(2-ethoxy-6-fluorophenyl)-1-(3-ethoxybenzyl)-3-methylpyrrolidin-2-one] the value was 25 nM.
Regarding `CCCOc1ccc(CN2C(=O)C(C)CC2c2c(F)cccc2OCC)cc1` (stereo not shown) [Example 377, 5-(2-ethoxy-6-fluorophenyl)-3-methyl-1-(4-propoxybenzyl)pyrrolidin-2-one], the IC50 at human orexin-2 receptor stood at 95 nM.
`CCCOc1cccc(F)c1C1CC(C)C(=O)N1Cc1ccc(OC(F)(F)F)cc1` (stereo not shown) [Example 415, 5-(2-fluoro-6-propoxyphenyl)-3-methyl-1-(4-(trifluoromethoxy)benzyl)pyrrolidin-2-one]: at human orexin-2 receptor (setting [3]), the IC50 is 291 nM.
